Assay results taken from patent US9150568B2, “Compositions and methods for modulating FXR” (NOVARTIS AG, priority 2010, dated 2015).

Biological target: T1, human Farnesoid X Receptor (FXR) ligand binding domain (GST-FXR LBD) (Homo sapiens, UniProt Q96RI1)
T1 construct: purchased Invitrogen
T1 sequence (Q96RI1 193-472 isoform Q96RI1-2): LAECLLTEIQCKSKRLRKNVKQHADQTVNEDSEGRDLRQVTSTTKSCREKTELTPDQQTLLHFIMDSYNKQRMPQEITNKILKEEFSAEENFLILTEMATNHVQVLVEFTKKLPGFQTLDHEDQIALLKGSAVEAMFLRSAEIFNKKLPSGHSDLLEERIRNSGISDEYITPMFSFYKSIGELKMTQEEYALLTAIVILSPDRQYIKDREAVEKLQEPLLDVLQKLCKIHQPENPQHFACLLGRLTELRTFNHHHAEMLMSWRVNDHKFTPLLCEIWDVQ
Assay: Human GST-FXR LBD co-activator interaction assay (HTRF)
Format: biochemical
Details: GST-FXR LBD / biotin-SRC-1 peptide FRET; response relative to GW4064; read-out: FXR Co-activator interaction assay (EC50)
Method in brief: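 FRET (HTRF) read-out of ligand-induced binding between GST-FXR LBD and an SRC-1 peptide, detected with anti-GST cryptate and streptavidin-XL665 in buffer with 50 mM KF. Response % was normalized to DMSO and to the maximal GW4064 response. EC50 came from a four-parameter fit.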

**Q.** For `O=C(O)c1ccc(N2C3CC[C@H]2CC(OCc2c(-c4cccnc4C(F)(F)F)noc2C2CC2)C3)nc1` (stereo partly shown) [Example 30-73], which EC50 is on record?
**A.** 74 nM

**Q.** `O=C(O)c1csc(N2C3CC[C@H]2CC(OCc2c(-c4ccccc4OC(F)(F)F)noc2C2CC2)C3)n1` (stereo partly shown) [Example 30-74] was tested. Which EC50 did it give?
**A.** 3 nM

**Q.** Which EC50 does the source give for `O=C(O)c1cnc(N2C3CC[C@H]2CC(OCc2c(-c4ccccc4OC(F)(F)F)noc2C2CC2)C3)s1` (stereo partly shown) [Example 30-75] here?
**A.** 17 nM

**Q.** For `O=C(O)c1cnc(N2C3CC[C@H]2CC(OCc2c(-c4ccccc4C(F)(F)F)noc2C2CC2)C3)s1` (stereo partly shown) [Example 30-76], which EC50 is on record?
**A.** 16 nM

**Q.** Which EC50 does the source give for `O=C(O)c1cn2nc(N3C4CC[C@H]3CC(OCc3c(-c5ccccc5C(F)(F)F)noc3C3CC3)C4)ccc2n1` (stereo partly shown) [Example 31-2] here?
**A.** 13 nM

**Q.** Which EC50 does the source give for `O=C(O)c1cc2nc(N3C4CC[C@H]3CC(OCc3c(-c5ccccc5OC(F)(F)F)noc3C3CC3)C4)ccn2n1` (stereo partly shown) [Example 31-3] here?
**A.** 2 nM

**Q.** For `O=C(O)c1cc2nc(N3C4CC[C@H]3CC(OCc3c(-c5ccccc5C(F)(F)F)noc3C3CC3)C4)ccn2n1` (stereo partly shown) [Example 31-4], which EC50 is on record?
**A.** 4 nM

**Q.** For `O=C(O)c1cn2nc(N3[C@@H]4CC[C@H]3C[C@@H](OCc3c(-c5c(F)cccc5F)noc3C3CC3)C4)ccc2n1` [Example 31-5], which EC50 is on record?
**A.** 10 nM

**Q.** How did the EC50 turn out when `Cc1cccc(F)c1-c1noc(C2CC2)c1CO[C@H]1C[C@H]2CC[C@@H](C1)N2c1ccc2nc(C(=O)O)cn2n1` [Example 31-6] was run?
**A.** 9 nM

**Q.** How did the EC50 turn out when `O=C(O)c1cnn2ccc(N3[C@@H]4CC[C@H]3C[C@@H](OCc3c(-c5ccccc5OC(F)(F)F)noc3C3CC3)C4)cc12` [Example 32-2] was run?
**A.** 4 nM
